Test results published in PubChem BioAssay AID1963430 (Molecular Pharmacology Branch, DTP, NCI, 2024).
One block for each compound: values may come before it.

Tested on: 521955-158-R2-J5-PDC complex spheroid growth, % test/control
Assay: Anticancer human tumor 521955-158-R2-J5-PDC patient-derived pancreatic carcinoma cell line growth inhibition [Asc]
Conditions: for IC50: curve of first compound; for viability, T/C: stronger effect = lower value
Description: Multicellular complex tumor spheroid response to apoptosis pathway targeting inhibitors Alrizomadlin, Pelcitoclax, and Dasminapant in combination with a variety of drugs and investigational agents in selected tumor cell lines
The MDM2 inhibitor alrizomadlin, the Bcl-2/Bcl-xL inhibitor pelcitoclax, and the IAPs inhibitor dasminapant were evaluated both individually and in combination with standard of care and investigational anticancer small molecules within a complex spheroid model of solid tumors. . Complex spheroids include a stromal component modeled by human endothelial cells (HUVEC) and fibroblasts modeled by human mesenchymal stem cells (MSCs). The concentration ranges selected for each drug and investigational agent were based upon clinically achievable concentrations if the clinical Cmax of the agent was known.
Compounds. The drugs and investigational agents: alrizomadlin (APG-115; NSC831270), pelcitoclax (APG-1252; NSC835773), dasminapant (APG-1387;NSC834197), TAK-243 (NSC785004), copanlisib (NSC809693), olaparib (NSC753686), talazoparib (NSC767125), cobimetinib (NSC 768068), eltanexor (KPT-8602, NSC 794443), abemaciclib (NSC 768073), sotorasib (NSC818433), adagrasib (NSC 831453), MRTX-1133 (NSC 836407), Iadademestat (ORY1001, NSC 806812), and RMC-4630 (NSC839698), were obtained from the NCI Developmental Therapeutics Program Chemical Repository. The FDA-approved anticancer drug set is available from the Developmental Therapeutics Program at https://dtp.cancer.gov/organization/dscb/obtaining/available plates.htm. […] The stock solutions were prepared in dimethyl sulfoxide (DMSO, Sigma-Aldrich, St. Louis, MO, cat. D2650) at 800-fold the tested concentration and stored at -70 degrees C prior to their use. All drugs and investigational agents were tested over a range starting from a high concentration at or near the clinical Cmax and decreasing in half-log increments. If the clinical Cmax for an agent had not been determined, the highest concentration tested was 10 microM.
The patient-derived cancer (PDC) cell lines include five colon adenocarcinomas: 186277-243-T-J2-PDC, 616215-338-R-J1-PDC, 439559-082-T-J2-PDC, 463943-066-T-J2-PDC, and 519858-162-T-J1-PDC; three pancreatic carcinomas: 323965-272-R-J2-PDC, 521955-158-R6-J3-PDC, and 521955-158-R2-J5-PDC; two uterine sarcomas: 327498-152-R-J2-PDC and 993429-296-R-J1-PDC; two rhabdomyosarcomas: 755483-174-R-J1-PDC and 772245-204-R-J1-PDC; two soft tissue sarcomas: 126254-015-R-J1-PDC and 494315-158-R-J1-PDC; two malignant fibrous histiocytomas: 317291-083-R-J1-PDC and 596521-263-R-J1-PDC; two breast carcinomas: 171881-019-R-J1-PDC and 885512-296-R-J2-PDC; and one ovarian carcinoma: 6556581-035-R-J-PDC were obtained from the NCI PDMR, (https://pdmr.cancer.gov). The established cell lines HSSY-2 synovial sarcoma (RRID:CVCL 8719), SYO-1 synovial sarcoma (RRID:CVCL_7146), MPNST malignant peripheral neural sheath tumor were obtained from the Sloan Kettering Institute. The following established cell lines were purchased from the American Type Culture Collection (ATCC, Manassas, VA), Sor the received from the NCI repository:, PANC-1 pancreatic carcinoma (CRL-1469, RRID:CVCL_0480), OVCAR-5 ovarian carcinoma (RRID:CVCL_1628), OVCAR-8 ovarian carcinoma (RRID:CVCL_1629), , MCF-7 breast carcinoma (CRL-12584, RRID:CVCL_0031), MDA-MB-231 breast carcinoma (CRL-12532, RRID:CVCL_0062), NCI-H1876 small cell lung carcinoma (CRL-5902, RRID:CVCL_1503), NCI-H510A small cell lung carcinoma (HTB-184, RRID:CVCL_1565), NCI-H1417 (CRL-5869, RRID:CVCL_1469), and NCI-H196 small cell lung carcinoma (CRL-5823, RRID:CVCL_1509). Dr. Peter Houghton (Greehey Children's Cancer Research Institute, University of Texas Health Science Center, San Antonio, TX) provided Rh-18 rhabdomyosarcoma (RRID:CVCL_1659). Pooled donor human umbilical vein endothelial cells (HUVEC, Lonza, cat. CC-2519) and human mesenchymal stem cells (hMSC, Lonza, cat. PT-2501) were purchased from Lonza (Walkersville, MD).
Cell Culture. […]

[1] = second compound 0.03 µM, first compound 0.00316 µM
[2] = second compound 0.03 µM, first compound 0.01 µM
[3] = second compound 0.03 µM, first compound 0.0316 µM
[4] = second compound 0.03 µM, first compound 0.1 µM
[5] = second compound 0.0949 µM, first compound 0.00316 µM
[6] = second compound 0.0949 µM, first compound 0.01 µM
[7] = second compound 0.0949 µM, first compound 0.0316 µM
[8] = second compound 0.0949 µM, first compound 0.1 µM
[9] = second compound 0.3 µM, first compound 0.00316 µM
[10] = second compound 0.3 µM, first compound 0.01 µM
[11] = second compound 0.3 µM, first compound 0.0316 µM
[12] = second compound 0.3 µM, first compound 0.1 µM
[13] = second compound 0.949 µM, first compound 0.00316 µM
[14] = second compound 0.949 µM, first compound 0.01 µM
[15] = second compound 0.949 µM, first compound 0.0316 µM
[16] = second compound 0.949 µM, first compound 0.1 µM
[17] = second compound 3 µM, first compound 0.00316 µM
[18] = second compound 3 µM, first compound 0.01 µM
[19] = second compound 3 µM, first compound 0.0316 µM
[20] = second compound 3 µM, first compound 0.1 µM
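Also: spheroids exposed to agents for 7 days before readout.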
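For viability, T/C in this document: 100% = DMSO vehicle control viability.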

IC50 (second compound 0.03 µM): > 1000 nM
IC50 (second compound 0.0949 µM): > 1000 nM
IC50 (second compound 0.3 µM): > 1000 nM
IC50 (second compound 0.949 µM): > 1000 nM
IC50 (second compound 3 µM): > 1000 nM
SMILES: CCN1CCN(Cc2ccc(Nc3ncc(F)c(-c4cc(F)c5nc(C)n(C(C)C)c5c4)n3)nc2)CC1 + CCN1C(C(=O)NC23CCC(C(=O)O)(CC2)CC3)C(c2cccc(Cl)c2F)C2(C(=O)Nc3cc(Cl)ccc32)C12CCCCC2
viability, T/C [1]: 87.5%
viability, T/C [2]: 88.8%
viability, T/C [3]: 57.3%
viability, T/C [4]: 77.4%
viability, T/C (second compound 0.03 µM, first compound 0.316 µM): 72.4%
viability, T/C (second compound 0.03 µM, first compound 1 µM): 89.4%
viability, T/C [5]: 101%
viability, T/C [6]: 79.8%
viability, T/C [7]: 62.8%
viability, T/C [8]: 56.3%
viability, T/C (second compound 0.0949 µM, first compound 0.316 µM): 73.2%
viability, T/C (second compound 0.0949 µM, first compound 1 µM): 105%
viability, T/C [9]: 106%
viability, T/C [10]: 99.1%
viability, T/C [11]: 65.6%
viability, T/C [12]: 60.9%
viability, T/C (second compound 0.3 µM, first compound 0.316 µM): 83.8%
viability, T/C (second compound 0.3 µM, first compound 1 µM): 110%
viability, T/C [13]: 119%
viability, T/C [14]: 102%
viability, T/C [15]: 107%
viability, T/C [16]: 79%
viability, T/C (second compound 0.949 µM, first compound 0.316 µM): 92.3%
viability, T/C (second compound 0.949 µM, first compound 1 µM): 98.2%
viability, T/C [17]: 142%
viability, T/C [18]: 172%
viability, T/C [19]: 126%
viability, T/C [20]: 89.6%
viability, T/C (second compound 3 µM, first compound 0.316 µM): 107%
viability, T/C (second compound 3 µM, first compound 1 µM): 139%

IC50 (second compound 0.03 µM): 6.31 nM
IC50 (second compound 0.0949 µM): 2.84 nM
IC50 (second compound 0.3 µM): 5.68 nM
IC50 (second compound 0.949 µM): 6.71 nM
IC50 (second compound 3 µM): 10.1 nM
SMILES: NC(=O)C(=Cn1cnc(-c2cc(C(F)(F)F)cc(C(F)(F)F)c2)n1)c1cncnc1 + CCN1C(C(=O)NC23CCC(C(=O)O)(CC2)CC3)C(c2cccc(Cl)c2F)C2(C(=O)Nc3cc(Cl)ccc32)C12CCCCC2
viability, T/C (second compound 0.03 µM, first compound 0.000949 µM): 57.6%
viability, T/C (second compound 0.03 µM, first compound 0.003 µM): 62.8%
viability, T/C (second compound 0.03 µM, first compound 0.00949 µM): 44.4%
viability, T/C (second compound 0.03 µM, first compound 0.03 µM): 34.9%
viability, T/C (second compound 0.03 µM, first compound 0.0949 µM): 30.7%
viability, T/C (second compound 0.03 µM, first compound 0.3 µM): 38.5%
viability, T/C (second compound 0.0949 µM, first compound 0.000949 µM): 103%
viability, T/C (second compound 0.0949 µM, first compound 0.003 µM): 45.5%
viability, T/C (second compound 0.0949 µM, first compound 0.00949 µM): 47.2%
viability, T/C (second compound 0.0949 µM, first compound 0.03 µM): 41.7%
viability, T/C (second compound 0.0949 µM, first compound 0.0949 µM): 33%
viability, T/C (second compound 0.0949 µM, first compound 0.3 µM): 36.2%
viability, T/C (second compound 0.3 µM, first compound 0.000949 µM): 76.5%
viability, T/C (second compound 0.3 µM, first compound 0.003 µM): 51.3%
viability, T/C (second compound 0.3 µM, first compound 0.00949 µM): 50.5%
viability, T/C (second compound 0.3 µM, first compound 0.03 µM): 38.3%
viability, T/C (second compound 0.3 µM, first compound 0.0949 µM): 33.6%
viability, T/C (second compound 0.3 µM, first compound 0.3 µM): 32.8%
viability, T/C (second compound 0.949 µM, first compound 0.000949 µM): 94.2%
viability, T/C (second compound 0.949 µM, first compound 0.003 µM): 58.1%
viability, T/C (second compound 0.949 µM, first compound 0.00949 µM): 47.9%
viability, T/C (second compound 0.949 µM, first compound 0.03 µM): 42%
viability, T/C (second compound 0.949 µM, first compound 0.0949 µM): 35.7%
viability, T/C (second compound 0.949 µM, first compound 0.3 µM): 43.8%
viability, T/C (second compound 3 µM, first compound 0.000949 µM): 109%
viability, T/C (second compound 3 µM, first compound 0.003 µM): 75.6%
viability, T/C (second compound 3 µM, first compound 0.00949 µM): 53.1%
viability, T/C (second compound 3 µM, first compound 0.03 µM): 34.5%
viability, T/C (second compound 3 µM, first compound 0.0949 µM): 49.9%
viability, T/C (second compound 3 µM, first compound 0.3 µM): 45.4%

IC50 (second compound 0.03 µM): > 100 nM
IC50 (second compound 0.0949 µM): > 100 nM
IC50 (second compound 0.3 µM): > 100 nM
IC50 (second compound 0.949 µM): > 100 nM
IC50 (second compound 3 µM): > 100 nM
SMILES: NC1CCC(NC2CC2c2ccccc2)CC1 (stereo not given) + CCN1C(C(=O)NC23CCC(C(=O)O)(CC2)CC3)C(c2cccc(Cl)c2F)C2(C(=O)Nc3cc(Cl)ccc32)C12CCCCC2
viability, T/C (second compound 0.03 µM, first compound 0.000316 µM): 59%
viability, T/C (second compound 0.03 µM, first compound 0.001 µM): 52.7%
viability, T/C [1]: 64.8%
viability, T/C [2]: 59.2%
viability, T/C [3]: 57.4%
viability, T/C [4]: 46.1%
viability, T/C (second compound 0.0949 µM, first compound 0.000316 µM): 55.9%
viability, T/C (second compound 0.0949 µM, first compound 0.001 µM): 55.1%
viability, T/C [5]: 69.4%
viability, T/C [6]: 59.3%
viability, T/C [7]: 65%
viability, T/C [8]: 65.8%
viability, T/C (second compound 0.3 µM, first compound 0.000316 µM): 58.5%
viability, T/C (second compound 0.3 µM, first compound 0.001 µM): 44.1%
viability, T/C [9]: 58.8%
viability, T/C [10]: 65.8%
viability, T/C [11]: 48.8%
viability, T/C [12]: 71.4%
viability, T/C (second compound 0.949 µM, first compound 0.000316 µM): 58.5%
viability, T/C (second compound 0.949 µM, first compound 0.001 µM): 66.8%
viability, T/C [13]: 74%
viability, T/C [14]: 67.5%
viability, T/C [15]: 62.5%
viability, T/C [16]: 77.4%
viability, T/C (second compound 3 µM, first compound 0.000316 µM): 84.7%
viability, T/C (second compound 3 µM, first compound 0.001 µM): 109%
viability, T/C [17]: 83.1%
viability, T/C [18]: 113%
viability, T/C [19]: 92.8%
viability, T/C [20]: 91.7%
